Laboratory results from article PMC6227840 (Open Medicine, 2018).
Where two headings read alike, the source gives them in different places.

Key:
[1] = Population pharmacokinetic; details: normal renal function
[2] = cited from earlier work
[3] = cited from earlier work; remark: listed apart in the source

CN[C@H](CC(C)C)C(=O)N[C@H]1C(=O)N[C@@H](CC(N)=O)C(=O)N[C@H]2C(=O)N[C@H]3C(=O)N[C@H](C(=O)N[C@H](C(=O)O)c4cc(O)cc(O)c4-c4cc3ccc4O)[C@H](O)c3ccc(c(Cl)c3)Oc3cc2cc(c3O[C@@H]2O[C@H](CO)[C@@H](O)[C@H](O)[C@H]2O[C@H]2C[C@](C)(N)[C@H](O)[C@H](C)O2)Oc2ccc(cc2Cl)[C@H]1O [vancomycin, Vancomycin]
central volume of distribution ([1]; base model, n = 32): 7.12 L | Clearance of vancomycin – CL, Bootstrap analysis Estimate ([1]; final model parameter, 200 bootstrap runs): 0.0754 L/h | Central volume of distribution – V1, NONMEM Estimate ([1]; final model): 7.47 L | Central volume of distribution – V1, Bootstrap analysis Estimate ([1]; final model, 200 bootstrap runs): 7.55 L | apparent volume of distribution ([2]; after intravenous administration, distributed in extracellular space): 0.4 to 1 L/kg | clearance [2]: about 2.64 l/h | interstitial fluid concentration in brain tissue ([3]; healthy adults): 0 to 3.45 mg/L | interstitial fluid concentration in the brain ([3]; patients with meningitis): 6.4 to 11.1 mg/L | central volume of distribution (base model, impaired renal function, n = 78): 22.7 L | central volume of distribution, renal impairment group versus normal group (base models, 22.7L vs. 7.12L): 3 times | Clearance of vancomycin – CL, Bootstrap analysis Estimate (final model parameter, impaired renal function, 200 bootstrap runs): 0.281 L/h | Central volume of distribution – V1, NONMEM Estimate (final model, impaired renal function): 29.9 L | Central volume of distribution – V1, Bootstrap analysis Estimate (final model, impaired renal function, 200 bootstrap runs): 30.7 L
